Counter-ions that a name gives are not always drawn.
Assays:
[1] = target: T1, human gene recombinant 5-HT7 receptor expressed in CHO cells (Homo sapiens, UniProt P34969); test: Binding affinity for the 5-HT7 serotonin receptor ([3H]LSD radioligand)
T1 construct: expressed in transfected cells; host or cells: CHO cells (membrane preparation)
Description: In this example, the human gene recombinant 5-HT7 receptor expressed in CHO cells was used. 1 nM [^3H]LSD, 5-HT7 receptor membrane (15 μg/well), a test drug, 10 mM MgCl2, 50 mM Tris-HCl buffer (pH 7.4) containing 0.1 mM EDTA, etc. were added to a vessel until the final volume reached 0.25 ml. The test drug was used at various concentrations. The mixture was cultured at 25° C. for 90 min. The culture was rapidly filtered through a Whatman GF/C glass fiber filter, which had been previously wetted with 0.3% polyethyleneimine using a Brandel harvester, to quench the reaction. The reaction mixture was washed with cold 50 mM Tris-HCl buffer. The filter was covered with MeltiLex, sealed in a sample bag, and dried in an oven. Counting was performed using MicroBeta (Wallac) and nonspecific binding was measured in the presence of […]. The K value of the test drug was obtained from nonlinear regression analysis (GraphPad Prism Program, San Diego, USA) of isotherms obtained by repeatedly performing the experiment on the drug at 10-11 stage concentrations in two test tubes (each twice).
The % inhibition values of the inventive compounds having different Y structures at a concentration of 10 μM against the 5-HT7 serotonin receptor were measured. Further, the binding affinity (Ki) values of the inventive compounds having different Y structures at a concentration of 10 μM for the 5-HT7 serotonin receptor were measured.

[2] = target: 5-HT6 (Homo sapiens, UniProt P50406); test: 5-HT6 receptor inhibition/binding (Tables 2-3)
5-HT6, sequence (P50406 whole entry, species assumed): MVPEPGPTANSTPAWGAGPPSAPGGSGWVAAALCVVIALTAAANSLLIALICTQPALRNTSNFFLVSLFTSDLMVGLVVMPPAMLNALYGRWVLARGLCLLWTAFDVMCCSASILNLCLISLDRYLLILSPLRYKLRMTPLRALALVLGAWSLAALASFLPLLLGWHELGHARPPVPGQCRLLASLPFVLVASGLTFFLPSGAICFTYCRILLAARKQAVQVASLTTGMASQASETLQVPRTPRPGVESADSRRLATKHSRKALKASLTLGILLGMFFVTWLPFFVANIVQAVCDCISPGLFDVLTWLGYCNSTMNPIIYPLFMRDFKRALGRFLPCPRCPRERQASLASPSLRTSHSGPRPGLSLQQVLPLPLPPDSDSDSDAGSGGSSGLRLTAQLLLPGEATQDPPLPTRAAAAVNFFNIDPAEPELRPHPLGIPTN

[3] = target: T2, 5-HT1A (Homo sapiens, UniProt P08908); test: 5-HT1A receptor inhibition (Table 3); format: binding
T2 sequence (P08908 1-422): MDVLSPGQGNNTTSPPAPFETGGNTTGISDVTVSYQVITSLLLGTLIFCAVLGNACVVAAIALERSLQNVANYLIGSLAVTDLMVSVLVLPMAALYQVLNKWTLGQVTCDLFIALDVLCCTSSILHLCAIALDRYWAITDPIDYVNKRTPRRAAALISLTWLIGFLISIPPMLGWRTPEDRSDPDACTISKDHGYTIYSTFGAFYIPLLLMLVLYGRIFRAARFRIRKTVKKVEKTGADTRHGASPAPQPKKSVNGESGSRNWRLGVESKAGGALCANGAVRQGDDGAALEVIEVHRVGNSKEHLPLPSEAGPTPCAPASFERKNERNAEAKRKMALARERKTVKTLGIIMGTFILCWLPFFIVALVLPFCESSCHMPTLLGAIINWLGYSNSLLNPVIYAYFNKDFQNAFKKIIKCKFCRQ

[4] = target: T3, 5-HT2C (Homo sapiens, UniProt P28335); test: 5-HT2C receptor inhibition/binding (Tables 1-3)
T3 sequence (P28335 33-458): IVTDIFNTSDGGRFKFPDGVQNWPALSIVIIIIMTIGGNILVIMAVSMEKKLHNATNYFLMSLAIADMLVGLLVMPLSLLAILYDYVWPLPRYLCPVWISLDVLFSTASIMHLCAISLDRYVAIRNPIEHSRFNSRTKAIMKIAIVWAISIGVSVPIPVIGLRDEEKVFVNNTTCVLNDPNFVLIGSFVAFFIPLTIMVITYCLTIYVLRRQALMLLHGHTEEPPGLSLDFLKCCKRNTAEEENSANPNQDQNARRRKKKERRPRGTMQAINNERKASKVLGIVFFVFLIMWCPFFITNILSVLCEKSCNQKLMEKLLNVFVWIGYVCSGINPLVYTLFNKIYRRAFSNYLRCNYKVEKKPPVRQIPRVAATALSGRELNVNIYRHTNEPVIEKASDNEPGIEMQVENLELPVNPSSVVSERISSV

T1 sequence (P34969 whole entry): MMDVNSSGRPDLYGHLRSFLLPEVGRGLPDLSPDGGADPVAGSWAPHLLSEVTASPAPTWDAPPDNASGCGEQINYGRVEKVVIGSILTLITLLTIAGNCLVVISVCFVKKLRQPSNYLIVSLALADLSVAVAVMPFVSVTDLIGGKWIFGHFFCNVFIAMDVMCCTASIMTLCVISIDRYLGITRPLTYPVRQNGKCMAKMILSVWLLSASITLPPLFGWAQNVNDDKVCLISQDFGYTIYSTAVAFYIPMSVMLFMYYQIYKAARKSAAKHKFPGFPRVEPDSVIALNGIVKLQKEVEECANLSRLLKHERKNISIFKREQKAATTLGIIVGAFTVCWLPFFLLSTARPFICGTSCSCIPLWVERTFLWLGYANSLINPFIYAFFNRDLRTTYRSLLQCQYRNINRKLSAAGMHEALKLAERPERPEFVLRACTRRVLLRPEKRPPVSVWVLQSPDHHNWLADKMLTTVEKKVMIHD

SMILES | Ki [1] | inhibition at 10 µM [1] | inhibition at 10 µM [2] | inhibition at 10 µM [3] | inhibition at 10 µM [4] | Ki [2] | Ki [4]
CC(=O)N1CCN(CCCCCC(=O)n2c3ccccc3c3ccccc32)CC1 [Example 2.11, 6-(4-Acetylpiperazin-1-yl)-1-(9H-carbazol-9-yl)hexan-1-one hydrochloride] | 2340 nM | 72.1% | 24.5% | 51.8% | 51.3% | – | –
CN1CCN(CCCCCC(=O)n2c3ccccc3c3ccccc32)CC1 [Example 2.12, 1-(9H-carbazol-9-yl)-6-(4-methylpiperazin-1-yl)hexan-1-one hydrochloride] | 1910 nM | 50% | 77.6% | 5.5% | 82.5% | – | –
O=C(CCCCN1CCC(c2ccccc2)CC1)n1c2ccccc2c2ccccc21 [Example 2.25, 1-(9H-carbazol-9-yl)-5-(4-phenylpiperidin-1-yl)pentan-1-one hydrochloride] | 153 nM | 96% | 67% | – | 53.2% | 1500 nM | 905 nM
O=C(CCCCN1CCC(Cc2ccccc2)CC1)n1c2ccccc2c2ccccc21 [Example 2.26, 5-(4-Benzylpiperidin-1-yl)-1-(9H-carbazol-9-yl)pentan-1-one hydrochloride] | 312 nM | 97.4% | 93.4% | – | 43.1% | 302 nM | –
CN1CCN(CCCCC(=O)n2c3ccccc3c3ccccc32)CC1 [Example 2.28, 1-(9H-carbazol-9-yl)-5-(4-methylpiperazin-1-yl)pentan-1-one hydrochloride] | – | 40.4% | 78.4% | 15.9% | – | – | –
O=C(CCCCN1CCN(c2ccccc2O)CC1)n1c2ccccc2c2ccccc21 [Example 2.30, 1-(9H-carbazol-9-yl)-5-(4-(2-hydroxyphenyl)piperazin-1-yl)pentan-1-one hydrochloride] | 86 nM | 98.7% | 62.6% | 102% | – | – | –
O=C(CCCN1CCN(Cc2ccccc2)CC1)n1c2ccccc2c2ccccc21 [Example 2.32, 4-(4-Benzylpiperazin-1-yl)-1-(9H-carbazol-9-yl)butan-1-one hydrochloride] | 404 nM | 90.8% | 14.7% | 69.4% | – | – | –
O=C(CCCN1CCN(c2ccccc2O)CC1)n1c2ccccc2c2ccccc21 [Example 2.33, 1-(9H-carbazol-9-yl)-4-(4-(2-hydroxyphenyl)piperazin-1-yl)butan-1-one] | 50 nM | 97% | 16.1% | 101% | – | – | –
c1ccc(C2CCN(CCCCCCn3c4ccccc4c4ccccc43)CC2)cc1 [Example 2.43, 9-(6-(4-Phenylpiperidin-1-yl)hexyl)-9H-carbazole] | 212 nM | 89.9% | 94.9% | – | – | 169 nM | –
c1ccc(CC2CCN(CCCCCCn3c4ccccc4c4ccccc43)CC2)cc1 [Example 2.44, 9-(6-(4-Benzylpiperidin-1-yl)hexyl)-9H-carbazole] | 232 nM | 86.8% | 97.8% | – | – | 142 nM | –
CC(=O)N1CCN(CCCCCCn2c3ccccc3c3ccccc32)CC1 [Example 2.45, 1-(4-(6-(9H-carbazol-9-yl)hexyl)piperazin-1-yl)ethanone] | 1480 nM | 63.1% | 35% | 6.2% | – | – | –
CN1CCN(CCCCCCn2c3ccccc3c3ccccc32)CC1 [Example 2.46, 9-(6-(4-Methylpiperazin-1-yl)hexyl)-9H-carbazole] | – | 49.4% | 82.2% | 19.3% | – | – | –
c1ccc(CN2CCN(CCCCCCn3c4ccccc4c4ccccc43)CC2)cc1 [Example 2.47, 9-(6-(4-Benzylpiperazin-1-yl)hexyl)-9H-carbazole] | 602 nM | 86% | 77.5% | 62% | – | – | –
Oc1ccccc1N1CCN(CCCCCCn2c3ccccc3c3ccccc32)CC1 [Example 2.48, 2-(4-(6-(9H-carbazol-9-yl)hexyl)piperazin-1-yl)phenol] | 89 nM | 90.5% | 96.9% | 105% | – | – | –
COc1ccccc1N1CCN(CCCCCCn2c3ccccc3c3ccccc32)CC1 [Example 2.49, 9-(6-(4-(2-Methoxyphenyl)piperazin-1-yl)hexyl)-9H-carbazole] | 145 nM | 85.7% | 85.1% | 105% | – | – | –
c1ccc(C2CCN(CCCCCn3c4ccccc4c4ccccc43)CC2)cc1 [Example 2.50, 9-(5-(4-Phenylpiperidin-1-yl)pentyl)-9H-carbazole] | 178 nM | 94.1% | 96.1% | – | – | 123 nM | –
c1ccc(CN2CCN(CCCCCn3c4ccccc4c4ccccc43)CC2)cc1 [Example 2.51, 9-(5-(4-Benzylpiperazin-1-yl)pentyl)-9H-carbazole] | 233 nM | 86.8% | 65.1% | 74.9% | – | – | –
Oc1ccccc1N1CCN(CCCCCn2c3ccccc3c3ccccc32)CC1 [Example 2.52, 2-(4-(5-(9H-carbazol-9-yl)pentyl)piperazin-1-yl)phenol] | 31 nM | 94.4% | 95.5% | 103% | – | – | –
COc1ccccc1N1CCN(CCCCCn2c3ccccc3c3ccccc32)CC1 [Example 2.53, 9-(5-(4-(2-Methoxyphenyl)piperazin-1-yl)pentyl)-9H-carbazole] | 65 nM | 91.5% | 75.5% | 101% | – | – | –
c1ccc(C2CCN(CCCCn3c4ccccc4c4ccccc43)CC2)cc1 [Example 2.54, 9-(4-(4-Phenylpiperidin-1-yl)butyl)-9H-carbazole] | 205 nM | 94.4% | 55.5% | – | – | 1430 nM | –
COc1ccccc1N1CCN(CCCCn2c3ccccc3c3ccccc32)CC1 [Example 2.56, 9-(4-(4-(2-Methoxyphenyl)piperazin-1-yl)butyl)-9H-carbazole] | 64 nM | 92.5% | 56.3% | 104% | – | – | –
c1ccc(C2CCN(CCCn3c4ccccc4c4ccccc43)CC2)cc1 [Example 2.57, 9-(3-(4-Phenylpiperidin-1-yl)propyl)-9H-carbazole] | 353 nM | 91.1% | 32.9% | – | – | – | –
c1ccc(CN2CCN(CCCn3c4ccccc4c4ccccc43)CC2)cc1 [Example 2.58, 9-(3-(4-Benzylpiperazin-1-yl)propyl)-9H-carbazole] | 404 nM | 88.7% | 15.1% | 64.9% | – | – | –
Oc1ccccc1N1CCN(CCCn2c3ccccc3c3ccccc32)CC1 [Example 2.59, 2-(4-(3-(9H-carbazol-9-yl)propyl)piperazin-1-yl)phenol] | 96 nM | 94.7% | 21.7% | 105% | – | – | –
COc1ccccc1N1CCN(CCCn2c3ccccc3c3ccccc32)CC1 [Example 2.60, 9-(3-(4-(2-Methoxyphenyl)piperazin-1-yl)propyl)-9H-carbazole] | 155 nM | 90.7% | 12.2% | 103% | – | – | –

Reference: patent US9663464B2, “Carbazole derivatives acting on 5-HT7 receptor” (KOREA INSTITUTE OF SCIENCE AND TECHNOLOGY, priority 2015, dated 2017)
